pIC50: −log10 of the molar value. Active and inactive are the calls of the source. The rule behind the calls is not given here.
Legend:
[1] = molecular target: Cyclin-Y/Cyclin-dependent kinase 16 (Homo sapiens, UniProt Q00536); experiment: Inhibition of human CDK16/cyclin-Y protein-protein complex; format: protein-complex assay
[2] = molecular target: Tyrosine-protein kinase BTK (Homo sapiens) (UniProt Q06187); experiment: Inhibition of BTK (unknown origin) at 0.5 uM assessed as competition rate relative to control
[3] = Cmax in 12 hr fasted SPF Sprague-Dawley rat at 15 mg/kg, po upon 2 hrs fasting post-administration measured upto 24 hrs; format: ADME, organism-based; design: time < 24 hrs, dose 15 mg/kg, route po; conditions: in vivo
[4] = molecular target: Signal transducer and activator of transcription 3 (Homo sapiens) (UniProt P40763); experiment: Inhibition of STAT3 activation in human U-937 cells assessed as decrease in P-STAT3 incubated for 0 to 24 hrs by Western blot analysis; format: cell-based; conditions: dose 200.0 µM, time 0-24 hrs, DDE = dose-dependent effect
Sequence of Signal transducer and activator of transcription 3 (Homo sapiens) (P40763 whole entry): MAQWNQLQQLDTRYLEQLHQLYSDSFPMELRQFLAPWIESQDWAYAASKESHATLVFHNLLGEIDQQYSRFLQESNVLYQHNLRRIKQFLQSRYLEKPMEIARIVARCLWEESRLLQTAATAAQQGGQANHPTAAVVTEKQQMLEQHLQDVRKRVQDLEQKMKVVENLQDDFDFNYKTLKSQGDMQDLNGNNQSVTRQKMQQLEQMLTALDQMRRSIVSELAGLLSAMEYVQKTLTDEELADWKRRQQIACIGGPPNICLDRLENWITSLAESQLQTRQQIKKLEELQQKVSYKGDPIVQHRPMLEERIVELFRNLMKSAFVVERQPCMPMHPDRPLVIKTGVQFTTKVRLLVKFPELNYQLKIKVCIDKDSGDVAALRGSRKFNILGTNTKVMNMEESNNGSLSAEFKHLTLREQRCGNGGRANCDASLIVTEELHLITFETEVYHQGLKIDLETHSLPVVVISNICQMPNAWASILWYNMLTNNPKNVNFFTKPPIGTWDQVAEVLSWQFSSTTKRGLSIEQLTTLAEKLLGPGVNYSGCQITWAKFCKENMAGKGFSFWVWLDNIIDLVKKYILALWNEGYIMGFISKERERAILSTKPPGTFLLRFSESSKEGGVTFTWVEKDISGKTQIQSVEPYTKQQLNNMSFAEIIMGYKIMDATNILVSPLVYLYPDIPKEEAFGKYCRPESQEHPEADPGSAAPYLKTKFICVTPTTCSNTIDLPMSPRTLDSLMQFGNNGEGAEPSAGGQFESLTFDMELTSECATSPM

[5] = AUC(0 to infinity) in 12 hr fasted SPF Sprague-Dawley rat at 5 mg/kg, iv upon 2 hrs fasting post-administration measured upto 24 hrs; format: ADME, organism-based; design: dose 5 mg/kg, time < 24 hrs, route iv; conditions: in vivo
[6] = molecular target: Tyrosine-protein kinase JAK2 (Homo sapiens, UniProt O60674); experiment: Inhibition of human JAK2 at 0.5 uM relative to control
Sequence of Tyrosine-protein kinase JAK2 (O60674 whole entry): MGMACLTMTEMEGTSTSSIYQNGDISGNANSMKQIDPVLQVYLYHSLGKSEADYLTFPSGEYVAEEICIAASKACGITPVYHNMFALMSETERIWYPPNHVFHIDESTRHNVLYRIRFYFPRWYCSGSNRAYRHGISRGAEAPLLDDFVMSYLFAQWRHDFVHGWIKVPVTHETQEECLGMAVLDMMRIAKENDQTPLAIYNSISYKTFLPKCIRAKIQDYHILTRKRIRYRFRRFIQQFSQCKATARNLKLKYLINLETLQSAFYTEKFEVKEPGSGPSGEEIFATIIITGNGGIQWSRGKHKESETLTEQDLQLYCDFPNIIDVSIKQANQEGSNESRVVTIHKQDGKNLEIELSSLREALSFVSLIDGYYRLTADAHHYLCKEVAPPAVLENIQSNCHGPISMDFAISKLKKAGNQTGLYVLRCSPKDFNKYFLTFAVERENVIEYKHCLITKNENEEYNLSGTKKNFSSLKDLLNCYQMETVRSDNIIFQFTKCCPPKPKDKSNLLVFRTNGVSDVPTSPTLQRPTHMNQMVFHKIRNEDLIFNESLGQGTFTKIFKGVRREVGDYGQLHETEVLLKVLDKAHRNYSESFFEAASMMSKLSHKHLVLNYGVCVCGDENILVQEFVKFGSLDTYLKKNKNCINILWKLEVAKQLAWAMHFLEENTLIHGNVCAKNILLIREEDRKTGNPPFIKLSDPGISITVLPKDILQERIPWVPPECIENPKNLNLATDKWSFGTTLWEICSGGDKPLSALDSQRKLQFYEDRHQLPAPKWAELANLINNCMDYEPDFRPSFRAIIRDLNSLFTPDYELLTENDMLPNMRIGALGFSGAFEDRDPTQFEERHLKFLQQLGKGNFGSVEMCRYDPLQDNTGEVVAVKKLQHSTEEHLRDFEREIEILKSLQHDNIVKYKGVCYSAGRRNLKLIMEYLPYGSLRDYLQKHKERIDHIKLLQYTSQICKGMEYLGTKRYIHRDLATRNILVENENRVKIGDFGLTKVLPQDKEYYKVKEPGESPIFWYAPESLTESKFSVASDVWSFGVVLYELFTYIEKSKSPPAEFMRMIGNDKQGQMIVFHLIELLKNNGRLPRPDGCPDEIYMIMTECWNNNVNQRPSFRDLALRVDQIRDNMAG

[7] = molecular target: T1, Tyrosine-protein kinase JAK3 (Homo sapiens) (UniProt P52333); experiment: Inhibition of JAK3 activation in human U-937 cells assessed as decrease in P-STAT5 incubated for 0 to 24 hrs by Western blot analysis; format: cell-based; conditions: time 0-24 hrs, DDE = dose-dependent effect
T1 sequence (whole entry): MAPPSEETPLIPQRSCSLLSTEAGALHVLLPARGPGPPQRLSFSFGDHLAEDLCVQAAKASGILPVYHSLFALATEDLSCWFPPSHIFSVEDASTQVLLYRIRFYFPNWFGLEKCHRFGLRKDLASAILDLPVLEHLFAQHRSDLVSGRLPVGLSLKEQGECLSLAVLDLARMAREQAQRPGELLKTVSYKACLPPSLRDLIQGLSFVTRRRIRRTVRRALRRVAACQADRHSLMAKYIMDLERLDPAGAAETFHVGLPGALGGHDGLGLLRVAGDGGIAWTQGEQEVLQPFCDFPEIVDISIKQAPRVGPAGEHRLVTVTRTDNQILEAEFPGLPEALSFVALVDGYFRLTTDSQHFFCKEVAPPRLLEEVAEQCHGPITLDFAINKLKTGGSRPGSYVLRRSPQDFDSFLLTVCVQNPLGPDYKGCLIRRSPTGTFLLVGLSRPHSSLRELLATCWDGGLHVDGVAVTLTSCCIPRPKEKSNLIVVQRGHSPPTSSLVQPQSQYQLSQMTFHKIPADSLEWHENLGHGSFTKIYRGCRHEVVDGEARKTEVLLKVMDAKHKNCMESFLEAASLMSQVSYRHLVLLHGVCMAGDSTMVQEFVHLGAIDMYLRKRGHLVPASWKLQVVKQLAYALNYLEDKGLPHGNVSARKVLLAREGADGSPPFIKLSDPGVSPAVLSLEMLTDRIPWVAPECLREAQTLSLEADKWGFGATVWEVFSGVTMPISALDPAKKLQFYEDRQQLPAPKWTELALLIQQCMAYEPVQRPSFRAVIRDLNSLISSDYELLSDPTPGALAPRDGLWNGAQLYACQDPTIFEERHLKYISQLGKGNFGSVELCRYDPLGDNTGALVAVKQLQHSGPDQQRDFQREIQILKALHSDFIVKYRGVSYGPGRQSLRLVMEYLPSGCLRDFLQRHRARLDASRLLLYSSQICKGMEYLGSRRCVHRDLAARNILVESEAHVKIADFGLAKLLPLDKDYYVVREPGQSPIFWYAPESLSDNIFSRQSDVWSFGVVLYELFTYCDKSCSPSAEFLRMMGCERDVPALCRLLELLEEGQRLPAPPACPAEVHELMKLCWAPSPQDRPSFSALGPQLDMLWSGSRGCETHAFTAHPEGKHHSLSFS

[8] = molecular target: T1, Tyrosine-protein kinase JAK3 (Homo sapiens); experiment: Irreversible inhibition of JAK3 in human U-937 cells assessed as decrease in P-JAK3 phosphorylation at 200 uM pretreated for 8 hrs followed by compound washout by immunoblotting analysis; format: cell-based
[9] = molecular target: Cytoplasmic tyrosine-protein kinase BMX (Homo sapiens) (UniProt P51813); experiment: Inhibition of BMX (unknown origin) at 0.5 uM assessed as competition rate relative to control
Sequence of Cytoplasmic tyrosine-protein kinase BMX (Homo sapiens) (P51813 whole entry): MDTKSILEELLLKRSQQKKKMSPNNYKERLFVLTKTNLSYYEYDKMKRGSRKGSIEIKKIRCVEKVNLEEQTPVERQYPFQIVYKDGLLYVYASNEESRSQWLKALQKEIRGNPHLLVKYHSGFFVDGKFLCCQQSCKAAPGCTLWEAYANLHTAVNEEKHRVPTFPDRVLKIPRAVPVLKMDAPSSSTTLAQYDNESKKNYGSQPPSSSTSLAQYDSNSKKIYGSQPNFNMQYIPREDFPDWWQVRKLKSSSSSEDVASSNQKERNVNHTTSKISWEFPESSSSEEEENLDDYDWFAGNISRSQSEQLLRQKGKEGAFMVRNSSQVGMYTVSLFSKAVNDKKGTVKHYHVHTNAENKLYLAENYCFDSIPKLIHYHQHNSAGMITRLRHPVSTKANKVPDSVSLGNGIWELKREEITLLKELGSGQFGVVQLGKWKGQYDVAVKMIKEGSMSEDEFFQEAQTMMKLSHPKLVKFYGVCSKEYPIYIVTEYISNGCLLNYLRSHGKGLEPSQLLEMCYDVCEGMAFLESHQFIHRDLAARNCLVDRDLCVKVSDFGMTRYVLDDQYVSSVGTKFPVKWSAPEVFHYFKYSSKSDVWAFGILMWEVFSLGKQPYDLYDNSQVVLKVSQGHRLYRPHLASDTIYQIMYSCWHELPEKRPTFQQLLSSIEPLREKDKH

[10] = molecular target: NUAK family SNF1-like kinase 1 (Homo sapiens, UniProt O60285); experiment: Inhibition of human ARK5
Sequence of NUAK family SNF1-like kinase 1 (O60285 whole entry): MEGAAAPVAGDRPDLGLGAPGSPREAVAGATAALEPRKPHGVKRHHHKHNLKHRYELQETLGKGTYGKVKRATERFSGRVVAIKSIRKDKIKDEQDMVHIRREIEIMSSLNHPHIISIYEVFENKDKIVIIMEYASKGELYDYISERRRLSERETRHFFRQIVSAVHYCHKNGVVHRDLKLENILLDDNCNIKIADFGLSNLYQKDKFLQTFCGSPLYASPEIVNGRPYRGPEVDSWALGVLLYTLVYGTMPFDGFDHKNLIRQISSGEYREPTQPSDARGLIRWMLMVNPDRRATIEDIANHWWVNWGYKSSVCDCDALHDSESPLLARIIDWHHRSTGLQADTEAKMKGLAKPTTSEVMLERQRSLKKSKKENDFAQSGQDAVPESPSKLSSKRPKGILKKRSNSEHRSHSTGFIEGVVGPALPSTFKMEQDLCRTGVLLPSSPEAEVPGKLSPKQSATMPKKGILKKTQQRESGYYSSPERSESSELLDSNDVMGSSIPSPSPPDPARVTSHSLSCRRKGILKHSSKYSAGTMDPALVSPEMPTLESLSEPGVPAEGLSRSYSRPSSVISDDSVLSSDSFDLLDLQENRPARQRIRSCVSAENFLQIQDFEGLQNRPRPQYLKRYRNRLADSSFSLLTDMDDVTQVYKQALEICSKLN

[11] = system: BaF3; experiment: cells; conditions: Mus musculus, BaF3, 72 h
[12] = molecular target: T1, Tyrosine-protein kinase JAK3 (Homo sapiens); experiment: Inhibition of JAK3 in human U-937 cells assessed as decrease in P-JAK3 phosphorylation at 200 uM pretreated for 10 hrs followed by compound washout by immunoblotting analysis; format: cell-based
[13] = molecular target: Tyrosine-protein kinase Blk (Homo sapiens) (UniProt P51451); experiment: Inhibition of BLK (unknown origin) at 0.5 uM relative to control
Sequence of Tyrosine-protein kinase Blk (Homo sapiens) (P51451 2-505 limits assumed): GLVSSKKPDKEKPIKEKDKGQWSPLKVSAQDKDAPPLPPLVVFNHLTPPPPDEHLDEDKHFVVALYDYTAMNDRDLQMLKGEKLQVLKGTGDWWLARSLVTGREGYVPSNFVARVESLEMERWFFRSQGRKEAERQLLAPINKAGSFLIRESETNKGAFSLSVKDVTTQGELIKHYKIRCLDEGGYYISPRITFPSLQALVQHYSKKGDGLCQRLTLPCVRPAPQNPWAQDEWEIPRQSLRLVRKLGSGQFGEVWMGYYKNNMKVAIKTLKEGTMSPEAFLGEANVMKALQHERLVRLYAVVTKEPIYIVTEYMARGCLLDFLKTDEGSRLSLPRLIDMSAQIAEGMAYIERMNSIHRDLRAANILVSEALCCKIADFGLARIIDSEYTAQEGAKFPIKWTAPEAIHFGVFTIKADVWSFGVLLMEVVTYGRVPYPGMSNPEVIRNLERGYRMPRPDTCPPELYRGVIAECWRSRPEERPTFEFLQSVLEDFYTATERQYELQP

[14] = system: U-937; experiment: Induction of cell cycle arrest in human U-937 cells assessed as accumulation at S phase at 3.7 nM measured after 24 hrs by propidium iodide staining based flow cytometric analysis (reference value: 15.35%); format: functional

Sequence of Cyclin-Y/Cyclin-dependent kinase 16 (Q00536 whole entry): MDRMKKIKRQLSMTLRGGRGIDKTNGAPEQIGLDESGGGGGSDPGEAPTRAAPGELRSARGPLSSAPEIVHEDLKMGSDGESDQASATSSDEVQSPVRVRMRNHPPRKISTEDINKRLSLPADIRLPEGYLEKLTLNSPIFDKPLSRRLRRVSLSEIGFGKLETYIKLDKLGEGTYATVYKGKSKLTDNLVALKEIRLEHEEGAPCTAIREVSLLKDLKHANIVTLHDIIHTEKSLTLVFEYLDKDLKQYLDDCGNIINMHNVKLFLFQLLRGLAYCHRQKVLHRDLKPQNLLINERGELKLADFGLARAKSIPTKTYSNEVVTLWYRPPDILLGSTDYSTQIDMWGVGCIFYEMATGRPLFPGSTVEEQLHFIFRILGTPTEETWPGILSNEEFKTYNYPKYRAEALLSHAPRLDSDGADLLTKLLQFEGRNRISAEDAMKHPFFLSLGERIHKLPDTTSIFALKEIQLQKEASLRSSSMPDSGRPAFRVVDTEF
Sequence of Cyclin-Y/Cyclin-dependent kinase 16 (Q8ND76 whole entry, further chain): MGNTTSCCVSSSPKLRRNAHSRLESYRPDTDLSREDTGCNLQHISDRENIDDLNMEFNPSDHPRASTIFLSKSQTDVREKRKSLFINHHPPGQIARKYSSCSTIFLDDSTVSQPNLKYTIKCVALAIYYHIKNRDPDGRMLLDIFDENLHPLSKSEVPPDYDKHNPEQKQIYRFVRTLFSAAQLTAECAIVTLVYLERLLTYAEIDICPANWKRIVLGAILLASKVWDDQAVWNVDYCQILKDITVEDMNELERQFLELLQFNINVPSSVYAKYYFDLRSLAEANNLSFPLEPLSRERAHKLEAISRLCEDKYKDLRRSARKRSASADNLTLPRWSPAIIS

SMILES: C=CC(=O)Nc1cc(Nc2ncc(Cl)c(O[C@@H]3CO[C@H]4[C@@H]3OC[C@H]4OC)n2)ccc1N(C)CCN(C)C
- pIC50 [1]: 6.87
- inhibition [2]: 40%
- Cmax [3]: 238 ng/mL
- inhibition [4]: Dde
- AUC(0-inf) [5]: 537 ng·h/mL
- inhibition [6]: 98%
- inhibition [7]: Dde
- inhibition [8]: Active
- inhibition [9]: 40%
- pIC50 [10]: 7.60
- pIC50 [11]: 7.64
- inhibition [12]: Active
- inhibition [13]: 60%
- Activity [14]: 15.23%
